Measured values reported in patent publication US8222414B2, “Indole compounds as an inhibitor of cellular necrosis” (LG Life Sciences Ltd., priority 2007, dated 2012).

Tested on: primary hepatocytes isolated from rats
Test: Cell protective effects against doxorubicin in hepatocytes (WST-1 cell viability)
Format: cell-based
Conditions: Hepatocyte; primary rat hepatocytes pretreated with compound for 30 min, then doxorubicin; viability by WST-1 after 24-48 h
Method: Various endogenous/exogenous attacks on the cells trigger the mechanisms of cell death which is broadly classified into two types, i.e. apoptosis or necrosis. Using these cell death mechanisms, in the present experimental example, primacy hepatocytes isolated from rats were treated with drugs which were clinically shown to result in serious side-effects of hepatocyte toxicity or various chemicals which derive cell death, and the compounds synthesized in the Examples were estimated for their hepatocyte protective effects, after 24-48 h. The substances used to derive hepatocyte death include CCl4, ActD, H2O2, doxorubicin, anti-Fas Ab/Actinomycin D, acetaminophen, EtOH, CdCl2, palmitate, stearate, cyclophosphamide, terfenadine, diclofenac, simvastatin, and adefovir. Primary hepatocytes were isolated using the method of Seglen P O (Experimental Cell Research 74 (1972) pp 450-454). Briefly, hepatocytes were isolated according to the two-step collagenase perfusion method, and dead cells were removed by low speed (500 rpm) centrifugation for 10 min using percoll gradient (Kreamer B L etc, In Vitro Cellular & Developmental Biology 22 (1986) pp 201-211). During this step, the viability of cells was maintained 90% or above. The cells were suspended in HepatoZYME media (Gibco BRL), and the number of cells was counted. 1.5×10^4 cells in 100 μl were placed into the collagen-coated 96-well plate (BD biocoat), and adhered on the bottom for 3-4 h.
In order to assess the hepatocyte protective effect, above adhered cells were pretreated with the Example compounds for 30 min. At this time, the concentration of the Example compounds were serially diluted by 2-fold or 3-fold over 5 steps starting from 30 uM, 10 uM or 1 uM depending on the experiments, and the final concentration of DMSO was adjusted to 0.2%. 30 min after the treatment by compounds, cells were treated by the substances deriving hepatocyte death or hepatotoxic drugs at the concentrations indicated in Table 1. After 24-48 h, the viability of cells was determined to estimate the hepatocyte protective effects. The viability of cells was determined using WST-1 (MK-400, […]) method by the absorbance at 440 nm. Hepatocyte protective effects of the Example compounds were represented by “EC50” which was calculated from measured values. “EC50” herein means the concentration of the compound at which 50% of maximum protective effect is observed in the experiment.

| Structure (SMILES) | EC50 |
| --- | --- |
| OC[C@@H]1CSC(c2cc3cc(Oc4cccnc4)cc(NC4CCOCC4)c3[nH]2)=N1 [Example 62, [(R)-2-(5-(pyridin-3-yl)oxy-7-(tetrahydropyran-4-yl)amino-1H-indol-2-yl)-4,5-dihydro-thiazol-4-yl]-methanol] | 3770 nM |
| O=C1c2ccccc2C(=O)N1Cc1cc(NC2CCCC2)c2[nH]c(C3=N[C@H](CO)CS3)cc2c1 [Example 64, [(R)-2-(5-(isoindol-1,3-dion-2-yl)methyl-7-cyclopentylamino-1H-indol-2-yl)-4,5-dihydro-thiazol-4-yl]-methanol] | 540 nM |
| O=C(O)C[C@@H]1CSC(c2cc3cc(Br)cc(NC4CCCC4)c3[nH]2)=N1 [Example 68, [(R)-2-(5-bromo-7-cyclopentylamino-1H-indol-2-yl)-4,5-dihydro-thiazol-4-yl]-acetic acid] | 490 nM |
| O=C(O)C[C@@H]1CSC(c2cc3cc(F)cc(NC4CCCC4)c3[nH]2)=N1 [Example 71, [(R)-2-(5-fluoro-7-cyclopentylamino-1H-indol-2-yl)-4,5-dihydro-thiazol-4-yl]-acetic acid] | 1100 nM |
| O=C(O)[C@@H]1CSC(c2cc3cccc(NC4CCOCC4)c3[nH]2)=N1 [Example 78, [(R)-2-(7-(tetrahydropyran-4-yl)amino-1H-indol-2-yl)-4,5-dihydro-thiazol-4-yl]-carboxylic acid] | 29400 nM |
| CCOc1cc(NC2CCCC2)c2[nH]c(C3=N[C@H](CC(=O)O)CS3)cc2c1 [Example 83, [(R)-2-(5-ethoxy-7-cyclopentylamino-1H-indol-2-yl)-4,5-dihydro-thiazol-4-yl]-acetic acid] | 600 nM |
| CCCOc1cc(NC2CCCC2)c2[nH]c(C3=N[C@H](CC(=O)O)CS3)cc2c1 [Example 84, [(R)-2-(5-propyloxy-7-cyclopentylamino-1H-indol-2-yl)-4,5-dihydro-thiazol-4-yl]-acetic acid] | 1600 nM |
| O=C(O)C[C@@H]1CSC(c2cc3cc(Oc4cccnc4)cc(NC4CCCC4)c3[nH]2)=N1 [Example 88, [(R)-2-(5-(pyridin-3-yl)oxy-7-cyclopentylamino-1H-indol-2-yl)-4,5-dihydro-thiazol-4-yl]-acetic acid] | 1870 nM |
| O=C(O)C[C@@H]1CSC(c2cc3cc(Oc4cccnc4)cc(NC4CCOCC4)c3[nH]2)=N1 [Example 90, [(R)-2-(5-(pyridin-3-yl)oxy-7-(tetrahydropyran-4-yl)amino-1H-indol-2-yl)-4,5-dihydro-thiazol-4-yl]-acetic acid] | 7920 nM |
| Cc1cc(NC2CCOCC2)c2[nH]c(C3=N[C@H](CC(=O)O)CS3)cc2c1 [Example 93, [(R)-2-(5-methyl-7-(tetrahydropyran-4-yl)amino-1H-indol-2-yl)-4,5-dihydro-thiazol-4-yl]-acetic acid] | 550 nM |
| CS(=O)(=O)c1ccc(Oc2cc(NC3CCCC3)c3[nH]c(C4=N[C@H](CC(=O)O)CS4)cc3c2)cc1 [Example 94, [(R)-2-(5-(4-(methanesulfonyl)phenoxy)-7-cyclopentylamino-1H-indol-2-yl)-4,5-dihydro-thiazol-4-yl]-acetic acid] | 28100 nM |
| COC(=O)C[C@@H]1CSC(c2cc3cc(CS(C)(=O)=O)cc(NC4CCCC4)c3[nH]2)=N1 [Example 97, [(R)-2-(5-methanesulfonylmethyl-7-cyclopentylamino-1H-indol-2-yl)-4,5-dihydro-thiazol-4-yl]-acetic acid methyl ester] | 4100 nM |
| O=C(O)CC[C@@H]1CSC(c2cc3cc(Cl)cc(NC4CCCC4)c3[nH]2)=N1 [Example 101, 3-[(R)-2-(5-chloro-7-cyclopentylamino-1H-indol-2-yl)-4,5-dihydro-thiazol-4-yl]-propionic acid] | 1000 to 10000 nM |
| CCOC(=O)CC[C@@H]1CSC(c2cc3cc(F)cc(NC4CCCC4)c3[nH]2)=N1 [Example 108, 3-[(R)-2-(5-fluoro-7-cyclopentylamino-1H-indol-2-yl)-4,5-dihydro-thiazol-4-yl]-propionic acid ethyl ester] | < 500 nM |
| O=C(O)CC[C@@H]1CSC(c2cc3cc(F)cc(NC4CCCC4)c3[nH]2)=N1 [Example 109, 3-[(R)-2-(5-fluoro-7-cyclopentylamino-1H-indol-2-yl)-4,5-dihydro-thiazol-4-yl]-propionic acid] | 610 nM |
| CCOc1cc(NC2CCCC2)c2[nH]c(C3=N[C@H](CCC(=O)O)CS3)cc2c1 [Example 115, 3-[(R)-2-(5-ethoxy-7-cyclopentylamino-1H-indol-2-yl)-4,5-dihydro-thiazol-4-yl]-propionic acid] | < 1000 nM |

| Structure (SMILES) | EC50 |
| --- | --- |
| O=C(O)CC[C@@H]1CSC(c2cc3cc(OC(F)(F)F)cc(NC4CCCC4)c3[nH]2)=N1 [Example 117, 3-[(R)-2-(5-trifluoromethoxy-7-cyclopentylamino-1H-indol-2-yl)-4,5-dihydro-thiazol-4-yl]-propionic acid] | < 500 nM |
| Cc1cc(NC2CCCC2)c2[nH]c(C3=N[C@@H](CC(=O)O)CO3)cc2c1 [Example 119, [(S)-2-(5-methyl-7-cyclopentylamino-1H-indol-2-yl)-4,5-dihydro-oxazol-4-yl]-acetic acid] | 170 nM |
| Cc1cc(NC2CCOCC2)c2[nH]c(C3=N[C@@H](CC(=O)O)CO3)cc2c1 [Example 120, [(S)-2-(5-methyl-7-(tetrahydropyran-4-yl)amino-1H-indol-2-yl)-4,5-dihydro-oxazol-4-yl]-acetic acid] | 1120 nM |
| O=C(O)C[C@H]1COC(c2cc3cc(Cl)cc(NC4CCCC4)c3[nH]2)=N1 [Example 121, [(S)-2-(5-chloro-7-cyclopentylamino-1H-indol-2-yl)-4,5-dihydro-oxazol-4-yl]-acetic acid] | 470 nM |
| O=C(O)C[C@H]1COC(c2cc3cc(Cl)cc(NCC4CCOCC4)c3[nH]2)=N1 [Example 122, [(S)-2-(5-chloro-7-(tetrahydropyran-4-yl)methylamino-1H-indol-2-yl)-4,5-dihydro-oxazol-4-yl]-acetic acid] | 960 nM |
| Cc1cc(NC2CCCC2)c2[nH]c(-c3ncc(CO)s3)cc2c1 [Example 130, [2-(5-Methyl-7-cyclopentylamino-1H-indol-2-yl)-thiazol-5-yl]-methanol] | 100 nM |
| OCc1csc(-c2cc3cccc(NC4CCCC4)c3[nH]2)n1 [Example 133, [2-(7-Cyclopentylamino-1H-indol-2-yl)-thiazol-4-yl]-methanol] | 310 nM |
| COC(=O)c1csc(-c2cc3cccc(NC4CCCC4)c3[nH]2)n1 [Example 134, [2-(7-Cyclopentylamino-1H-indol-2-yl)-thiazol-4-yl]-carboxylic acid methyl ester] | 510 nM |
| Cc1cc(NC2CCC(=O)CC2)c2[nH]c(C3=N[C@H](CC(=O)O)CS3)cc2c1 [Example 135, {(R)-2-[5-methyl-7-(4-oxo-cyclohexylamino)-1H-indol-2-yl]-4,5-dihydro-thiazol-4-yl}acetic acid] | 1260 nM |
| c1cc(NC2CCCC2)c2[nH]c(C3=N[C@H](CN4CCCC4)CS3)cc2c1 [Example 158, Cyclopentyl-[2-((R)-4-pyrrolidin-1-ylmethyl-4,5-dihydro-thiazol-2-yl)-1H-indol-7-yl]-amine] | 910 nM |
| NC[C@@H]1CSC(c2cc3cccc(NC4CCCC4)c3[nH]2)=N1 [Example 173, [2-((R)-4-aminomethyl-4,5-dihydro-thiazol-2-yl)-1H-indol-7-yl]-cyclopentyl-amine] | 1980 nM |
| N[C@H]1CCN(CC[C@@H]2CSC(c3cc4cc(Cl)cc(NC5CCCC5)c4[nH]3)=N2)C1 [Example 176, {2-[(R)-4-((S)-3-amino-pyrrolidin-1-ylethyl)-4,5-dihydro-thiazol-2-yl]-5-chloro-1H-indol-7-yl}-cyclopentyl-amine] | > 1000 nM |
| CN(C)c1cccc(CC[C@H]2CSC(c3cc4cc(Cl)cc(NC5CCCC5)c4[nH]3)=N2)c1 [Example 177, (5-Chloro-2-{(S)-4-[2-(3-dimethylamino-phenyl)-ethyl]-4,5-dihydro-thiazol-2-yl}-1H-indol-7-yl)-cyclopentyl-amine] | > 1000 nM |
| CC(=O)N1CCN(CC[C@H]2CSC(c3cc4cc(Cl)cc(NC5CCCC5)c4[nH]3)=N2)CC1 [Example 178, 1-(4-{2-[(S)-2-(7-cyclopentylamino-5-chloro-1H-indol-2-yl)-4,5-dihydro-thiazol-4-yl]-ethyl}-piperazin-1-yl)-ethanone] | 230 nM |
| O=C1CN(CC[C@H]2CSC(c3cc4cccc(NC5CCOCC5)c4[nH]3)=N2)CCN1 [Example 182, (2-{(S)-4-[(2-oxopiperazin-4-yl)-ethyl]-4,5-dihydro-thiazol-2-yl}-1H-indol-7-yl)-(tetrahydro-pyran-4-yl)-amine] | 375 nM |

Same assay, conditions: primary rat hepatocytes pretreated with compound for 30 min, then doxorubicin; viability by WST-1 after 24-48 h

| Structure (SMILES) | EC50 |
| --- | --- |
| OCC[C@@H]1CSC(c2cc3cc(Cl)cc(NC4CCOCC4)c3[nH]2)=N1 [Example 67, [(R)-2-(5-chloro-7-(tetrahydropyran-4-yl)amino-1H-indol-2-yl)-4,5-dihydro-thiazol-4-yl]-ethanol] | > 1000 nM |
